From patent US8487121B2, “Chromane derivatives as TRPV3 modulators” (Glenmark Pharmaceuticals S.A., priority 2007, dated 2013)

Target: T1, Human TRPV3 (Homo sapiens, UniProt Q8NET8)
T1 construct: expressed in transfected cells; host or cells: CHO cells (G-418 selected)
T1 sequence (Q8NET8 1-790): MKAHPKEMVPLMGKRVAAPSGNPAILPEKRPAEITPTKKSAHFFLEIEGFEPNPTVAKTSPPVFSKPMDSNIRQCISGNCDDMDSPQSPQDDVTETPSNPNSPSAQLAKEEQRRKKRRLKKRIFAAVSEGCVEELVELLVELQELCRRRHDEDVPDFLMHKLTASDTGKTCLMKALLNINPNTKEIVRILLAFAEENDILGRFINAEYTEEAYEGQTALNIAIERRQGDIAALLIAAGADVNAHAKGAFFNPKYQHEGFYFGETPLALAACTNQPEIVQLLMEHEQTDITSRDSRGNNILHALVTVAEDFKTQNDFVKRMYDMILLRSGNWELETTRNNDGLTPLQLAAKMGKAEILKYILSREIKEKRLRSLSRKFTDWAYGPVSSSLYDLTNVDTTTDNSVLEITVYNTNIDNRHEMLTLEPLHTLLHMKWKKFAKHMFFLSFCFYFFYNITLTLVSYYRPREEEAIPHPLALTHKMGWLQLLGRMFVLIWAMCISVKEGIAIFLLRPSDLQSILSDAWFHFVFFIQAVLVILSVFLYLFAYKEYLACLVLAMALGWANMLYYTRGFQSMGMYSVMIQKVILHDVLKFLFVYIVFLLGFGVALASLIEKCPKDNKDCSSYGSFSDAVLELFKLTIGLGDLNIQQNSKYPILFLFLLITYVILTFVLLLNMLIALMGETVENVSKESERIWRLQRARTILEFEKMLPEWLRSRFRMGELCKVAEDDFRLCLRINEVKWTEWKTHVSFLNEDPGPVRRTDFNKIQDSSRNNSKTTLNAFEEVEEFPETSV
Assay: 45Calcium uptake assay: inhibition of 2-APB induced cellular uptake of radioactive calcium
Type: cell-based
Conditions: human TRPV3 expressing CHO cells, 2-APB 500 μM; for inhibition at 1 µM: 1.0 μM compound, read-out: Percentage inhibition at 1.0 μM; for inhibition at 10 µM: 10.0 μM compound, read-out: Percentage inhibition at 10.0 μM
Method in brief: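 CHO cells stably expressing human TRPV3 (~50,000/well) were preincubated with compounds for 10 min in medium containing 0.1% BSA, 1.8 mM CaCl2 and 0.5% DMSO. Then 500 μM 2-APB and 5 μCi/ml 45Ca2+ were added for 4 min. Lysate radioactivity was expressed as % of maximal uninhibited response, and IC50 came from nonlinear regression, alongside % inhibition at 1.0 and 10.0 μM.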

Compound	inhibition at 1 µM [%]	inhibition at 10 µM [%]	IC50 [nM]
O=C(CCc1ccc2ccccc2n1)NC1CC2(CCC2)Oc2ccc(Cl)cc21 (stereo not shown) [Example 76, N-(6-Chloro-3,4-dihydrospiro[chromene-2,1′-cyclobutan]-4-yl)-3-(quinolin-2-yl)propanamide]	23.5	58.8	
COc1cccc(CCC(=O)NC2CCSc3ccc(Cl)cc32)c1OC1CCCC1 (stereo not shown) [Example 89, N-(6-chloro-3,4-dihydro-2H-thiochromen-4-yl)-3-(2-cyclopentyloxy-3-methoxyphenyl)-propanamide]	38	87.3	
COc1cccc(CCCC(=O)N[C@@H]2CC3(CCC3)Oc3ccc(Cl)cc32)c1OC1CCCC1 [Example 93, N-(4R)-6-Chloro-3,4-dihydrospiro[chromene-2,1′-cyclobutan]-4-yl-4-(2-cyclopentyloxy-3-methoxyphenyl)butanamide]	72.8	94.2	500 to 1000
COc1ccc(CCC(=O)NC2CC3(CCC3)Oc3ccc(Cl)cc32)c2cc(C)oc12 (stereo not shown) [Example 78, N-(6-chloro-3,4-dihydrospiro[chromene-2,1′-cyclobutan]-4-yl)-3-(2-methyl, 7-methoxy-1-benzofuran-4-yl)propanamide]	46.1	91.3	500 to 1000
COc1ccc(CCC(=O)N[C@H]2CC3(CCC3)Oc3ccc(Cl)cc32)c2ccccc12 [Example 70, N-[(4S)-6-Chloro-3,4-dihydrospiro[chromene-2,1′-cyclobutan]-4-yl)-3-(4-methoxy)-1-naphthylpropanamide]	66.1	91.2	500 to 1000
COc1cccc(CCC(=O)N[C@@H]2CC3(CCC3)Oc3c(Cl)cccc32)c1OC1CCCC1 [Example 47]			< 500
CCCOc1c(CCC(=O)NC2CC3(CCC3)Oc3c(Cl)cc(Cl)cc32)cccc1NS(C)(=O)=O (stereo not shown) [Example 61, N-(6,8-dichloro-3,4-dihydrospiro[chromene-2,1′-cyclobutan]-4-yl)-3-{2-propoxy-3-[(methylsulfonyl)amino]phenyl}propanamide]	45.1	93.8	
COc1cccc(CCC(=O)NC2CC3(CCC3)Oc3cccc(OCc4ccccc4)c32)c1OC1CCCC1 (stereo not shown) [Example 50, N-(5-Benzyloxy-3,4-dihydrospiro[chromene-2,1′-cyclobutan]-4-yl)-3-(2-cyclopentyloxy-3-methoxy)phenylpropanamide]	52.8	77.6	500 to 1000
O=C(CC1CCCc2ccccc21)NC1CC2(CCC2)Oc2ccc(Cl)cc21 (stereo not shown) [Example 21, N-(6-Chloro-3,4-dihydrospiro[chromene-2,1′-cyclobutan]-4-yl)-2-(1,2,3,4-tetrahydronaphthalen-1-yl)acetamide]	63.5	93.6	500 to 1000
COc1cccc(CCC(=O)NC2CC3(CCCCC3)Oc3ccc(Cl)cc32)c1OC1CCCC1 (stereo not shown) [Example 87, N-(6-Chloro-3,4-dihydrospiro[chromene-2,1′-cyclohexan]-4-yl)-3-(2-cyclopentyloxy-3-methoxy)phenylpropanamide]	26.7	67.3	
COc1cccc(CCC(=O)NC2CC3(CCC3)Oc3cc(C)c(Cl)cc32)c1OC1CCCC1 (stereo not shown) [Example 49, N-(6-Chloro-7-methyl-3,4-dihydrospiro[chromene-2,1′-cyclobutan]-4-yl)-3-(2-cyclo-pentyloxy-3-methoxy)phenylpropanamide]	35.4	70.1	
O=C(Cc1cccc2ccccc12)NC1CC2(CCC2)Oc2cc(Cl)ccc21 (stereo not shown) [Example 14, N-(7-Chloro-3,4-dihydrospiro[chromene-2,1′-cyclobutan]-4-yl)-2-(1-naphthyl)acetamide]	9.8	78.8	
COc1cccc(CCCC(=O)NC2CC3(CCC3)Oc3c(Cl)cc(Cl)cc32)c1OC1CCCC1 (stereo not shown) [Example 98, N-(6,8-Dichloro-3,4-dihydrospiro[chromene-2,1′-cyclobutan]-4-yl)-4-(2-cyclopentyloxy-3-methoxyphenyl)butanamide]	36.9	69.5	
COc1cccc(CCC(=O)NC2CC3(CCC3)Oc3c(Cl)cc(Cl)cc32)c1OCCN(C)C (stereo not shown) [Example 60, N-(6,8-dichloro-3,4-dihydrospiro[chromene-2,1′-cyclobutan]-4-yl)-3-{[2-(dimethylamino)ethoxy-3-methoxy]phenyl}propanamide]	1.2	0	
COc1cccc(CCC(=O)NC2CC3(CCC3)Oc3ccccc32)c1OC1CCCC1 (stereo not shown) [Example 37, N-(3,4-Dihydrospiro[chromene-2,1′-cyclobutan]-4-yl)-3-(2-cyclopentyloxy-3-methoxy)phenylpropanamide]	46.3	95.7	500 to 1000
O=C(CCc1cccc(OC2CCCC2)c1)N[C@@H]1CC2(CCC2)Oc2ccc(Cl)cc21 [Example 29, N-[(4R)-6-chloro-3,4-dihydrospiro[chromene-2,1′-cyclobutan]-4-yl]-3-(3-cyclopentyloxy)phenyl propanamide]	43.6	88.4	
O=C(CCc1c[nH]c2ccccc12)NC1CC2(CCC2)Oc2ccc(Cl)cc21 (stereo not shown) [Example 77, N-(6-Chloro-3,4-dihydrospiro[chromene-2,1′-cyclobutan]-4-yl)-3-(1H-indol-3-yl)-propanamide]	39.4	81.8	
COc1cccc(CC(=O)N[C@H]2CC3(CCC3)Oc3c(Cl)cccc32)c1OC1CCCC1 [Example 6, N-[(4S)-8-Chloro-3,4-dihydrospiro[chromene-2,1′-cyclobutan]-4-yl]-2-(2-cyclopentyl-oxy-3-methoxy)phenylacetamide]	35.3	89	
COc1cccc(CCC(=O)NC2CC3(CCC3)Oc3c(Cl)cc(Cl)cc32)c1OC1CCCC1 (stereo not shown) [Example 59, N-(6,8-Dichloro-3,4-dihydrospiro[chromene-2,1′-cyclobutan]-4-yl)-3-(2-cyclopentyloxy-3-methoxy)phenylpropanamide]	89.4	96.3	< 500
Cc1cccc(CCC(=O)N[C@@H]2CC3(CCC3)Oc3ccc(Cl)cc32)c1OC1CCCC1 [Example 53, (4R)-6-Chloro-N-(3,4-dihydrospiro[chromene-2,1′-cyclobutan]-4-yl)-3-(2-cyclopentyloxy-3-methyl)phenylpropanamide]	61.9	91.4	500 to 1000
COc1ccc2ccccc2c1CCC(=O)N[C@H]1CC2(CCC2)Oc2ccc(Cl)cc21 [Example 68]	70.6	91	500 to 1000
O=C(Cc1cccc2ccccc12)NC1CC2(CCC2)Oc2cccc(O)c21 (stereo not shown) [Example 17, N-(5-Hydroxy-3,4-dihydrospiro[chromene-2,1′-cyclobutan]-4-yl)-2-(1-naphthyl)-acetamide]	21.9	70	
COc1cccc(CCC(=O)NC2CC3(CCC3)Oc3ccc(Cl)cc32)c1OC(C)C (stereo not shown) [Example 39, N-(6-Chloro-3,4-dihydrospiro[chromene-2,1′-cyclobutan]-4-yl)-3-(2-isopropoxy-3-methoxy)phenylpropanamide]	73.8	97.5	500 to 1000
O=C(CCc1ccccc1OC1CCCC1)N[C@@H]1CC2(CCC2)Oc2c(Cl)cccc21 [Example 31, N-1(4R)-(8-Chloro-3,4-dihydrospiro[chromene-2,1′-cyclobutan]-4-yl)-3-(2-cyclopentyloxy)phenyl propanamide]	78.6	97.4	500 to 1000
CC(C)S(=O)(=O)Nc1ccccc1CCC(=O)NC1CC2(CCC2)Oc2ccc(Cl)cc21 (stereo not shown) [Example 34, N-(6-Chloro-3,4-dihydrospiro[chromene-2,1′-cyclobutan]-4-yl)-3-{2-[(isopropylsulfonyl)amino]phenyl}propanamide]	5.69	77.1	
O=C(Cc1cccc2ccccc12)NC1CC2(CCC2)Oc2ccc(F)cc21 (stereo not shown) [Example 10]	13.7	92.4	
COc1ccc2cc([C@H](C)C(=O)N[C@H]3CC4(CCC4)Oc4ccc(Cl)cc43)ccc2c1 [Example 20, (2S)—N-[(4S)-6-Chloro-3,4-dihydrospiro[chromene-2,1′-cyclobutan]-4-yl]-2-(6-methoxy-2-naphthyl)propanamide]	19.3	50.9	
